Paper PMC8767159, “Multiparameter Optimization of Trypanocidal Cruzain Inhibitors With In Vivo Activity and Favorable Pharmacokinetics” (Frontiers in Pharmacology, 2022)
Read-outs that look alike come from different tables or passages of the source.

How the values were obtained:
[1] = Cytotoxicity MTS assay in HFF-1 fibroblasts; format: cell-based; details: human HFF-1 fibroblasts
Experimental: The synthesized compounds were evaluated for their cytotoxicity against HFF-1 cells using the MTS assay (Promega, Madison, WI) ([Barltrop et al., 1991]) as previously described ([Ferreira et al., 2019]). HFF-1 fibroblasts were plated at 2 × 10^3/well in 96-well culture plates in RPMI 1640 without phenol red enriched with 10% FCS and incubated overnight at 37°C and 5% CO2. Next, 7 concentrations (0.1–100 µM) of the compounds were added in 3-fold serial dilutions, each concentration in triplicate, and the plates were incubated for 72 h at 37°C and 5% CO2. Next, 20 µl of MTS was added to each well, and the plates were incubated for an additional 4 h at 37°C and 5% CO2. The absorbance was measured at 490 nm using a spectrophotometer, and the data were transferred to SigmaPlot 10.0 (Systat Software Inc., Erkrath, Germany) to determine the IC50 values. Doxorubicin (Sigma–Aldrich) was used as a positive control, and untreated wells (100% growth) were used as negative controls in all plates. All compounds were tested in two independent assays.

[2] = In vitro metabolic stability in human liver microsomes; format: in vitro ADME; details: human, liver microsomes
In short: (§1)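 Compounds incubated at 37°C with mouse or human liver microsomes (0.25 mg/ml) in potassium phosphate buffer with NADPH; samples quenched in ACN/MeOH at 0, 5, 10, 15, 20 and 30 min. Parent remaining by LC-MS/MS relative to 0 min; T½ = ln(2)/k, CLint = k*1000/0.25 (μL/min/mg).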

[3] = In vitro metabolic stability in mouse liver microsomes; format: in vitro ADME; details: mouse, liver microsomes
In short: as §1

[4] = In vivo pharmacokinetics in male CD1 mice; parameters: species or system mouse; details: for bioavailability / C0 / AUC / half-life / Vd / Tmax / Cmax: plasma; for bioavailability: oral bioavailability; for clearance: plasma clearance, read-out: CLp (L/h/kg) IV (converted)
Experimental: The in vivo pharmacokinetic profiles of the compounds were determined using male CD1 mice weighing […] ([Davies and Morris, 1993]; [Liu and Jia, 2007]). The compounds were administered in a single dose orally (0.5 mg/kg) and intravenously (0.5 mg/kg). Stock solutions of the compounds in DMSO were diluted in Tween 80, PEG-400, and D5W (5% dextrose in water) at a ratio of 2:5:20:73 (v/v). The injection volume was 10 ml/kg. The remaining plasma concentration was monitored over time by LC-MS/MS by collecting blood samples (40 μl) at 10, 25, and 50 min and 1, 3, 6, 9, 12, and 24 h after administration of the compound.
For the biotransformation experiments and analysis of metabolites in microsomes, an Ultra-High-Pressure Liquid Chromatography instrument (UHPLC, Thermo Accela, Waltham, MA) ([Spaggiari et al., 2014]) connected to an automatic sample injector and a 1250 series pump was used. The UHPLC system was connected to a Thermo Fisher (Waltham, MA) LTQ Orbitrap mass spectrometer. For all other analyses, an AB Sciex Triple Quad 5500 coupled to a UHPLC equipped with a UV 1290 diode detector (Agilent Technologies, Santa Clara, CA) and a CTC PAL self-collecting system (LEAP Technologies, Carrboro, NC) was used. Q1 MS positive ion mode (300–500 Da) was used to detect the ions of the parent compounds. The UV detector was operated in spectral mode (250–280 nm). A Hypersil Gold C18 (2.1 mm × 100 mm, 1.9 µm, Thermo Fisher) HPLC column was used. The mobile phases were solvent A (0.1% formic acid in water) and solvent B (0.1% formic acid in ACN). The flow was adjusted to 0.55 ml/min, and the injection volume was adjusted to […]. The gradient started with 1% solvent B for 0.4 min, reached 40% (solvent B) in 2.3 min and 95% (solvent B) in 0.67 min, was maintained for 0.5 min, and returned to the initial condition of 1%. This condition was maintained for 1 min before injection of the next sample. The peak area ratio (peak area of the test compounds/peak area of the control compounds) was converted to the percentage of remaining compound, with the 0 min time point ratio set to 100%. T½ and CLint were calculated from the percentage of remaining compound versus the incubation time. From the resulting function, the slope (k) was determined. The equations T1/2 (min) = ln(2)/k and CLint in vitro (μL/min/mg) = k*1000/0.25 were used to determine T½ and CLint.

[5] = Table 5, CLint/fu, read-out: CLint_u (L/h/kg) human (converted)
[6] = Table 5, read-out: CLint (L/h/kg) human (converted)
[7] = Table 5, CLint/fu, read-out: CLint_u (L/h/kg) mouse (converted)
[8] = Table 5, read-out: CLint (L/h/kg) mouse (converted)
[9] = Table 6, plasma clearance corrected for the fraction unbound, IV
[10] = mouse, 0.5 mg/kg, Table 6, male CD1 mice
[11] = mouse, Table 6, IV 0.5 mg/kg, male CD1 mice
[12] = mouse, Table 6, IV 0.5 mg/kg, male CD1 mice, read-out: AUC (ng*h/ml) IV
[13] = mouse, Table 6, IV 0.5 mg/kg, male CD1 mice, read-out: T1/2 (h) IV (converted)
[14] = mouse, Table 6, IV 0.5 mg/kg, male CD1 mice, read-out: V SS (L/kg) IV
[15] = mouse, Table 6, PO 0.5 mg/kg, male CD1 mice
[16] = mouse, Table 6, PO 0.5 mg/kg, male CD1 mice, read-out: AUC (ng*h/ml) PO
[17] = Table S5, CLint/fu, read-out: CLint_u (L/h/kg) Human (converted)
[18] = Table S5, read-out: CLint (L/h/kg) Human (converted)
[19] = Table S5, CLint/fu, read-out: CLint_u (L/h/kg) Mouse (converted)
[20] = Table S5, read-out: CLint (L/h/kg) Mouse (converted)
[21] = male, CD1, mouse, 0.5 mg/kg, Table S6, IV, mice
[22] = male, CD1, mouse, 0.5 mg/kg, Table S6, PO, mice
[23] = mouse, Table 6, PO 0.5 mg/kg, male CD1 mice, read-out: T1/2 (h) PO (converted)

SMILES | IC50 at 72 h [1] | CLint scaled at 5 µM [2, 5] | CLint scaled at 5 µM [2, 6] | CLint scaled at 5 µM [3, 7] | CLint scaled at 5 µM [3, 8] | CLpu [4, 9] | bioavailability [4, 10] | C0 [4, 11] | AUC [4, 12] | half-life [4, 13] | Vd [4, 14] | Tmax [4, 15] | AUC [4, 16] | clearance [4, 11] | CLint scaled at 5 µM [2, 17] | CLint scaled at 5 µM [2, 18] | CLint scaled at 5 µM [3, 19] | CLint scaled at 5 µM [3, 20] | Cmax [4, 15] | half-life [4, 23] | also measured
O=C(COc1ccccc1[N+](=O)[O-])NCCc1nc2ccccc2[nH]1 [Compound 32] | > 100 µM | 39.2 L/h/kg | 25.5 L/h/kg | 808 L/h/kg | 526 L/h/kg | 2623 mL/min/kg | 1.9% | 220 ng/mL | 53 ng·h/mL | 0.2 h | 2.5 L/kg | 18 min | 1 ng·h/mL | 5.9 L/h/kg |  |  |  |  |  |  | 
Cc1ccccc1OCC(=O)NCCc1nc2ccccc2[nH]1 [Compound 17] | > 100 µM | 31.2 L/h/kg | 23.9 L/h/kg | 392 L/h/kg | 300 L/h/kg | 1738 mL/min/kg | 0% | 153 ng/mL | 83 ng·h/mL | 0.5 h | 4.4 L/kg |  |  | 6.3 L/h/kg |  |  |  |  |  |  | 
O=C(COc1ccccc1)NCCc1nc2ccccc2[nH]1 [Compound 1] | > 100 µM |  |  |  |  |  |  |  |  |  |  |  |  |  | < 1.5 L/h/kg | < 1.5 L/h/kg | 72.1 L/h/kg | 72.1 L/h/kg |  |  | CLpu ([4]; Table S6, plasma clearance corrected for the fraction unbound): 289.8 mL/min/kg; clearance [4, 21]: 4.01 L/h/kg; C0 [4, 21]: 988 ng/mL; AUC ([4]; male, CD1, mouse, 0.5 mg/kg, Table S6, IV, mice, read-out: AUC (ng*h/mL) IV): 250 ng·h/mL; half-life ([4]; male, CD1, mouse, 0.5 mg/kg, Table S6, IV, mice, read-out: T1/2(h) IV (converted)): 0.21 h; Vd ([4]; male, CD1, mouse, 0.5 mg/kg, Table S6, IV, mice, read-out: VSS (L/kg) IV): 1.02 L/kg; Cmax [4, 22]: 21 ng/mL; Tmax [4, 22]: 19.2 min; AUC ([4]; male, CD1, mouse, 0.5 mg/kg, Table S6, PO, mice, read-out: AUC (ng*h/mL) PO): 22.5 ng·h/mL; half-life ([4]; male, CD1, mouse, 0.5 mg/kg, Table S6, PO, mice, read-out: T1/2 (h) PO (converted)): 0.73 h; bioavailability ([4]; male, CD1, mouse, 0.5 mg/kg, Table S6, mice): 9%
O=C(COc1ccc2ccccc2c1)NCCc1nc2ccccc2[nH]1 [Compound 35] | > 100 µM | 43.9 L/h/kg | 21.1 L/h/kg | 1170 L/h/kg | 565 L/h/kg | 5577 mL/min/kg | 2% | 228 ng/mL | 86 ng·h/mL | 0.2 h | 2 L/kg | 18 min | 1.7 ng·h/mL | 5.8 L/h/kg |  |  |  |  | 3.7 ng/mL | 0.2 h | 
O=C(COc1ccc2ccccc2c1Br)NCCc1nc2ccccc2[nH]1 [Compound 34] | > 30 µM | 540 L/h/kg | 49.9 L/h/kg |  | 607 L/h/kg |  | 5.6% | 255 ng/mL | 116 ng·h/mL | 0.3 h | 1.9 L/kg | 18 min | 6.5 ng·h/mL | 7.6 L/h/kg |  |  |  |  | 7.6 ng/mL | 0.6 h | CLpu (L/h/kg) [4, 9]: 2,874.7 L/h/kg
O=C(COc1ccccc1)NCCc1nc2ccccc2n1CCOc1ccccc1 [Compound 20] | > 30 µM |  |  |  |  |  |  |  |  |  |  |  |  |  | 301 L/h/kg | 123 L/h/kg | 1200 L/h/kg | 489 L/h/kg |  |  | 
